Like-named read-outs stand apart in the source and are kept apart here.
Columns and labels:
[1] = tested on: MDA-MB-231; assay: MTT cytotoxicity assay, MDA-MB-231 cells; assay type: cell-based, human; details: MTT
Experimental: (§1) The cytotoxicity of 1–11CA was assessed against human breast cancer MCF-7 and MDA-MB-231 cells, and non-tumorigenic adherent mouse fibroblast connective tissue L929 cells using the MTT assay after 24 and 72 h (Tables S5 ^† and Table 1, respectively).
(§2) Then, necessary dilutions were made using the supplement DMEM, to prepare the range of tested concentrations. Since DMSO was used to solubilize the compounds, a supplemented DMEM + DMSO (at the same percentage as in the sequential dilutions) was considered as a control in the 3-[4,5-dimetylthiazole-2-yl]-2,5-diphenyltetrazolium bromide (MTT) assay.
(§3) L929, MCF-7, and MDA-MB-231 cell lines were cultured in DMEM supplemented with 10% (v/v) FBS and 1% (v/v) of penicillin–streptomycin. The cells were incubated in a humidified chamber at 37 °C under saturated air with a 5% CO2 atmosphere. Cells were passed at 80%–90% of confluency with 0.25% (w/v) trypsin and the cell culture media was changed every 2–3 days.
(§4) The compounds were tested on two breast cancer cell lines (MCF-7 and MDA-MB-231) and L929 fibroblasts, used as a reference for the safety evaluation according to ISO 10993-1:2009 “Biological evaluation of medical devices”. Cells were seeded on sterile 96-well plates at 50 000 cells per well (L929) and 20 000 cells per well (MCF-7 and MDA-MB-231) in supplemented DMEM medium (100 μL) for 24 h. The culture medium was removed and new media containing different concentrations of the compounds (0–1000 μM) was added to the wells (100 μL). Control cells were incubated under the same conditions in the absence of a compound. Cells were incubated for 24 and 72 h under the same conditions described above. Then, the medium was removed, and the cells were incubated with 3-(4,5-dimethylthiazol-2-yl)-2,5-diphenyltetrazolium bromide (MTT; 0.5 mg mL^−1) for 3 h. After this time, the medium was removed, and formazan crystals were solubilized with DMSO (100 μL per well). The absorbance in each well was read on a SynergyTM HT Multimode microplate reader (BioTek Instruments; Winooski, VT, USA) at 570 and 630 nm (for background correction), and the cell viability was calculated according to the following equation (eqn (1)):1 [drawing 3] where OD570(sample) and OD630(sample) are the optical densities of the solutions containing the compounds and OD570(control) and OD630(control) are controls without compound.
(§5) Each apoptosis value determination represents the mean ± standard deviation of 2 independent assays. The IC50 values were obtained using GraphPad Prism software and ANOVA (analysis of variance) was performed to determine the statistical difference between the IC50 values of different cell lines.

[2] = tested on: MCF-7; assay: MTT cytotoxicity assay, MCF-7 cells; assay type: cell-based, human; details: MTT
Experimental: as §1, §2, §3, §4, §5

[3] = n-octanol/water partition coefficient (shake-flask, ICP-MS)
Experimental: The saturated solutions were filtered
(DigiPREP Jr. 15ml, 40 Pos, SCP Science). The digestion program was the following: 15
After the digestion, the sample
Samples were further diluted
range. All measurements were performed in triplicates.
lipophilicity of a compound. This assay was performed following the Shake-flask method
organic and aqueous phase. Aliquots of each phase were taken and analyzed separately
range. The partition coefficient was calculated as P!"=
respectively. All measurements were performed in triplicates.

[4] = Stability in solution (ESI-MS, NMR); details: 1 mM
Experimental: The stability of 11CA under pseudo-physiological conditions was assessed using ESI-MS and ^1H and ^31P NMR spectroscopy.
Stability studies were performed on 11CA over 72 h at 37 °C.
The stability of 11Cl was also monitored over
72 h via 1H and 31P NMR spectroscopy. The complex was fully dissolved in d6-DMSO,
diluted with D2O to reach 10% d6-DMSO in D2O (1 mM final concentration) and, finally,
the pD was adjusted to 7.2 ± 0.1 (neutral conditions). Furthermore, the stability of 11Cl
and 11BPh4 was also assessed in 100% d6-DMSO (1 mM final concentration) as a highly

[5] = target: bovine serum albumin (BSA) (Bos taurus, UniProt P02769); assay: BSA binding assay (tryptophan fluorescence quenching)
Chain of bovine serum albumin (BSA) (P02769 25-607): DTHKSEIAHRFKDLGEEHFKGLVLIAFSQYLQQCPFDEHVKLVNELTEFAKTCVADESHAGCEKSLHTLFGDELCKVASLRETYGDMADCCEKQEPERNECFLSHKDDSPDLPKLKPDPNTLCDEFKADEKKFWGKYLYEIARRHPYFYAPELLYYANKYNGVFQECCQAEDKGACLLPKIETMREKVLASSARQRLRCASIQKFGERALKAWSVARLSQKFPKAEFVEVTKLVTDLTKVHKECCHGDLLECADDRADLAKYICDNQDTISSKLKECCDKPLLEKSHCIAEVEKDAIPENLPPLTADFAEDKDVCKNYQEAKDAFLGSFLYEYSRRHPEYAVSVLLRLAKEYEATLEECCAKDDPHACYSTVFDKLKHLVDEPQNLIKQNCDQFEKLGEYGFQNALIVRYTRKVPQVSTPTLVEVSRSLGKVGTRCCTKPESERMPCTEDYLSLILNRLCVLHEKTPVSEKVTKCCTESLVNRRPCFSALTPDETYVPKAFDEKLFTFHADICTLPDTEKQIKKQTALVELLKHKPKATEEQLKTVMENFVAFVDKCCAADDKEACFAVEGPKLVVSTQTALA
Experimental: BSA (16 μM) in 10 mM Tris-HCl pH 7.6 + 1 mM EDTA solution and varying concentrations of 11Cl (0–32 μM) were incubated at 37 °C for 24 h. Afterward, the fluorescence spectra were measured for each solution between 300 and 500 nm (λex = 280 nm). The intensity at λmax (340 nm) was recorded.

## Cc1ccccc1.[Cl-].[Cl][Ru+]([PH](c1ccccc1)(c1ccccc1)c1ccccc1)[PH](c1ccccc1)(c1ccccc1)c1ccccc1 [Compound 11Cl, [Ru(η^6-toluene)(PPh3)2Cl]Cl]
[1]; 24 h exposure, read-out: IC50 (µM) (average ± standard deviation) 24 h MDA-MB-231
  IC50: 5.5 ± 0.6 µM
[1]; 72 h exposure, read-out: IC50 (μM) (average ± standard deviation) 72 h MDA-MB-231
  IC50: 0.086 ± 0.006 µM
[2]; 24 h exposure, read-out: IC50 (µM) (average ± standard deviation) 24 h MCF-7
  IC50: 4 ± 0.3 µM
[2]; 72 h exposure, read-out: IC50 (μM) (average ± standard deviation) 72 h MCF-7
  IC50: 0.061 ± 0.003 µM
[3]
  LogPow: 1.48 ± 0.29
[4]; 10% d6-DMSO in D2O, pD 7.2, 72 h
  stability by NMR spectroscopy in neutral conditions: No signs of hydrolysis or decomposition were observed
[4]; 100% d6-DMSO, 72 h
  stability in DMSO (NMR): No changes were observed
[5]; BSA 16 μM, 37 °C, 24 h
  bimolecular quenching rate kq (BSA): 1.9e+12 M⁻¹ s⁻¹
  binding constant to BSA: 560000 M⁻¹
[5]; Table S8
  KSV (BSA): 1.13 ± 0.08 104 M−1
  kq (BSA): 1.88 ± 0.14 1012 M−1
  n (number of binding sites, BSA): 1.4
[5]; estimated value
  n (number of binding sites in BSA): ~1

From publication PMC10442743 (Dalton Transactions (Cambridge, England : 2003), 2023)
